Patent US9802937B2, “Substituted pyrazolo{4,3-D}pyrimidines as kinase inhibitors” (ORIGENIS GMBH, priority 2011, dated 2017)

Tests used:
SYK kinase = target: T1, SYK kinase (Homo sapiens, UniProt P43405); assay: SYK Assay (OMNIA KINASE ASSAY, SOX peptide fluorescence); format: biochemical; details: apparent Ki calculated from the IC50 using the Cheng-Prusoff equation; 1 mM ATP, 30° C.; read-out: SYK Activities: Ki
T1 construct: purchased Invitrogen, Carlsbad
In short: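 Apparent Ki values are derived by Cheng-Prusoff from IC50s of sigmoidal fits of reaction rate against compound concentration. Rates come from chelation-enhanced SOX fluorescence (λex 360/λem 485 nm, read every 30 s over 30 min) as the kinase phosphorylates 10 µM Omnia Tyr 7 peptide at 30 °C, with 1 mM ATP and 0.2 mM DTT.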

LRRK2 = LRRK2 (Homo sapiens, UniProt Q5S007); assay: LRRK2-LRRK2 G2019S-Assay (LanthaScreen Eu Kinase Binding Assay); details: 5 nM LRRK2 or their mutants, 10 nM tracer 236, RT 1 h; read-out: LRRK2 Activities: IC50
Sequence of LRRK2 (Q5S007 970-2527 limits assumed): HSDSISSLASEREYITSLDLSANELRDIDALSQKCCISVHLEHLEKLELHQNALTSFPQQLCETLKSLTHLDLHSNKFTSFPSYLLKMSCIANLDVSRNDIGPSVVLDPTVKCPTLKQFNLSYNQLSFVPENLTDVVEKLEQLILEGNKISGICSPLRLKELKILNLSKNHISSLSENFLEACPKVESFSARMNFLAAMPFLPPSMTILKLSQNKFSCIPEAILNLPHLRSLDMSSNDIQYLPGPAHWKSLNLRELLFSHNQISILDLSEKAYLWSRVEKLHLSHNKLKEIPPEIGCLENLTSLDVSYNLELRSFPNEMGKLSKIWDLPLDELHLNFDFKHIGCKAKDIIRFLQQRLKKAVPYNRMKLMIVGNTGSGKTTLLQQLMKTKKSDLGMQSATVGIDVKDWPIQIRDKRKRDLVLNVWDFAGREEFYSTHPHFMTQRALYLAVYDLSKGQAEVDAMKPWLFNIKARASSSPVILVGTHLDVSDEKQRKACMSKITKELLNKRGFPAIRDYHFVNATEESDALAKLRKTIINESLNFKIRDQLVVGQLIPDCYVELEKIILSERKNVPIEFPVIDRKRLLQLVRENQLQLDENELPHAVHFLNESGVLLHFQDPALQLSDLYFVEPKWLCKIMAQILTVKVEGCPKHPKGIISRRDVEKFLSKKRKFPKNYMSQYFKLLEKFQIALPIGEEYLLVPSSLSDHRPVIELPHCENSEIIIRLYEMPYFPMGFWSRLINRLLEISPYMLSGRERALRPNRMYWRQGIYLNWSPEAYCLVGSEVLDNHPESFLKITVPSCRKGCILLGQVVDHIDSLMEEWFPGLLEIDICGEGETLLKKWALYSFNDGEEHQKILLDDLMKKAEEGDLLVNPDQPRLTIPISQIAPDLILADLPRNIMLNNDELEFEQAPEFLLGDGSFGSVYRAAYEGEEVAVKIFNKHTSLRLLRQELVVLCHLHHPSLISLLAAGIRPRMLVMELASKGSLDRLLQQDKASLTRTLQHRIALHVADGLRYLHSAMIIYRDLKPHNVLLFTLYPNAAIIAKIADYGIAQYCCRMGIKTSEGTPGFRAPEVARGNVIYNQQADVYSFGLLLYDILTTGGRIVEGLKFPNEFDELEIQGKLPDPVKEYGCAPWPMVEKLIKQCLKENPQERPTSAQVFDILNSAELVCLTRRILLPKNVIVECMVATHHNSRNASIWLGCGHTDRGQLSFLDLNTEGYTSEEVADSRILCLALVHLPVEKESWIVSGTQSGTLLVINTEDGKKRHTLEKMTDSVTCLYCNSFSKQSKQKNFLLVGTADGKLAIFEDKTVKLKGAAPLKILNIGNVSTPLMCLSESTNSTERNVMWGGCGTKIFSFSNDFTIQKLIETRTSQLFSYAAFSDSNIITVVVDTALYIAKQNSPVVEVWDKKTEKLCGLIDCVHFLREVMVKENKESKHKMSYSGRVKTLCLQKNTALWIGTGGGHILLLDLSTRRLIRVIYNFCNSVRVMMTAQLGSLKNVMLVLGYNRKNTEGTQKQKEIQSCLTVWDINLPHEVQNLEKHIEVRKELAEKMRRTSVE
Experimental: In the assay LanthaScreen™ Eu Kinase Binding Assay by Invitrogen Corporation (Carlsbad) the effect of invention of a compound on the phosphorylation is determined by measurement of fluorescence intensity emission ratio based on the binding and displacement of a proprietary, Alexa Fluor® 647-labeled, ATP-competitive kinase inhibitor scaffold (kinase tracer) to the kinase of interest. Binding of the tracer to the kinase is detected using a europium-labeled anti-tag antibody, which binds to the kinase of interest. Simultaneous binding of both the tracer and antibody to the kinase results in a high degree of FRET (fluorescence resonance energy transfer) from the europium (Eu) donor fluorophore to the Alexa Fluor® 647 acceptor fluorophore on the kinase tracer. Binding of an inhibitor to the kinase competes for binding with the tracer, resulting in a loss of FRET. The fluorescence intensity ratio is directly proportional to the amount of peptide phosphorylation.
To the wells of an 384 well small volume plate (Greiner, Frickenhausen) are added (i) the compound under test in 5% DMSO/distilled water (5 μl), (ii) 5 μl of the kinase antibody mixture resulting in a final concentration 5 nM LRRK2 or their mutants, 2 nM EU-Anti-GST antibody in 1× kinase buffer A. The reaction was started with addition of (iii) 5 μl resulting in a final concentration of 10 nM tracer 236. The assay plate was incubated at RT for 1 h and fluorescence intensitiy readings were collected using a TECAN M1000 at two wavelengthes of λex 340/λem 615 nm and λex 340/λm 665 nm with a delay time of 100 μs and an integration time of 200 μs after 60 minutes. The emission ratio was calculated by division of the acceptor/tracer emission ([…]) by the antibody/donor emission ([…]). The inhibitor concentration was plotted versus the emission ratio to determine the IC50 using XLFit 5.0 (IDBS, Guildford) to fit to a sigmoidal dose response curve with a variable slope.

Structure (SMILES)	Ki (SYK kinase)	IC50 (LRRK2)
COc1ccc(Nc2nc(C3CCN(C)CC3)nc3cn[nH]c23)cc1OC [Example #51, N-(3,4-dimethoxyphenyl)-5-(1-methylpiperidin-4-yl)-1H-pyrazolo[4,3-d]pyrimidin-7-amine]	0.01 to 0.1 µM	0.1 to 1 µM
Oc1cccc(Nc2nc(-c3ccccc3)nc3cn[nH]c23)c1 [Example #65, 3-((5-phenyl-1H-pyrazolo[4,3-d]pyrimidin-7-yl)amino)phenol]	0.01 to 0.1 µM	0.1 to 1 µM
c1cc(-c2nc(Nc3ccc4cn[nH]c4c3)c3[nH]ncc3n2)cs1 [Example #76, N-(1H-indazol-6-yl)-5-(thiophen-3-yl)-1H-pyrazolo[4,3-d]pyrimidin-7-amine]	< 0.01 µM	0.01 to 0.1 µM
c1cc(-c2nc(Nc3cc(C4CC4)[nH]n3)c3[nH]ncc3n2)cs1 [Example #77, N-(5-cyclopropyl-1H-pyrazol-3-yl)-5-(thiophen-3-yl)-1H-pyrazolo[4,3-d]pyrimidin-7-amine]	0.01 to 0.1 µM	0.01 to 0.1 µM
COc1ccc(-c2nc(Nc3ccc(N(C)C)cc3)c3[nH]ncc3n2)cc1 [Example #78, N1-(5-(4-methoxyphenyl)-1H-pyrazolo[4,3-d]pyrimidin-7-yl)-N4,N4-dimethylbenzene-1,4-diamine]	< 0.01 µM	0.1 to 1 µM
COc1ccc(-c2nc(Nc3ccc4cn[nH]c4c3)c3[nH]ncc3n2)cc1 [Example #79, N-(1H-indazol-6-yl)-5-(4-methoxyphenyl)-1H-pyrazolo[4,3-d]pyrimidin-7-amine]	< 0.01 µM	0.01 to 0.1 µM
COc1ccc(-c2nc(Nc3cccc(O)c3)c3[nH]ncc3n2)cc1 [Example #80, 3-((5-(4-methoxyphenyl)-1H-pyrazolo[4,3-d]pyrimidin-7-yl)amino)phenol]	0.01 to 0.1 µM	0.1 to 1 µM
COc1cccc(-c2nc(Nc3cccc(O)c3)c3[nH]ncc3n2)c1 [Example #81, 3-((5-(3-methoxyphenyl)-1H-pyrazolo[4,3-d]pyrimidin-7-yl)amino)phenol]	0.01 to 0.1 µM	0.1 to 1 µM
c1csc(-c2nc(Nc3ccc4cn[nH]c4c3)c3[nH]ncc3n2)c1 [Example #82, N-(1H-indazol-6-yl)-5-(thiophen-2-yl)-1H-pyrazolo[4,3-d]pyrimidin-7-amine]	< 0.01 µM	< 0.01 µM
c1cc(-c2nc(Nc3ccc4c(c3)NCCO4)c3[nH]ncc3n2)cs1 [Example #84, N-(5-(thiophen-3-yl)-1H-pyrazolo[4,3-d]pyrimidin-7-yl)-3,4-dihydro-2H-benzo[b][1,4]oxazin-6-amine]	< 0.01 µM	0.01 to 0.1 µM
Oc1cccc(Nc2nc(-c3ccsc3)nc3cn[nH]c23)c1 [Example #85, 3-((5-(thiophen-3-yl)-1H-pyrazolo[4,3-d]pyrimidin-7-yl)amino)phenol]	0.01 to 0.1 µM	0.1 to 1 µM
COc1ccc(-c2nc(Nc3cc(C4CC4)[nH]n3)c3[nH]ncc3n2)cc1 [Example #86, N-(5-cyclopropyl-1H-pyrazol-3-yl)-5-(4-methoxyphenyl)-1H-pyrazolo[4,3-d]pyrimidin-7-amine]	0.01 to 0.1 µM	0.1 to 1 µM
COc1ccc(-c2nc(Nc3ccc4c(c3)NCCO4)c3[nH]ncc3n2)cc1 [Example #87, N-(5-(4-methoxyphenyl)-1H-pyrazolo[4,3-d]pyrimidin-7-yl)-3,4-dihydro-2H-benzo[b][1,4]oxazin-6-amine]	< 0.01 µM	0.01 to 0.1 µM
COc1cccc(-c2nc(Nc3cc(C4CC4)[nH]n3)c3[nH]ncc3n2)c1 [Example #88, N-(5-cyclopropyl-1H-pyrazol-3-yl)-5-(3-methoxyphenyl)-1H-pyrazolo[4,3-d]pyrimidin-7-amine]	0.1 to 1 µM	0.1 to 1 µM
COc1cccc(-c2nc(Nc3ccc4c(c3)NCCO4)c3[nH]ncc3n2)c1 [Example #89, N-(5-(3-methoxyphenyl)-1H-pyrazolo[4,3-d]pyrimidin-7-yl)-3,4-dihydro-2H-benzo[b][1,4]oxazin-6-amine]	0.01 to 0.1 µM	0.01 to 0.1 µM

More lines, now with the values ahead:

Ki (SYK kinase)	IC50 (LRRK2)	Structure (SMILES)
< 0.01 µM	0.01 to 0.1 µM	COc1ccc(-c2nc(Nc3ccc(N4CCOCC4)cc3)c3[nH]ncc3n2)cc1 [Example #59, 5-(4-methoxyphenyl)-N-(4-morpholinophenyl)-1H-pyrazolo[4,3-d]pyrimidin-7-amine]
< 0.01 µM	0.1 to 1 µM	COc1cccc(-c2nc(Nc3ccc(OC)c(OC)c3)c3[nH]ncc3n2)c1 [Example #60, N-(3,4-dimethoxyphenyl)-5-(3-methoxyphenyl)-1H-pyrazolo[4,3-d]pyrimidin-7-amine]
< 0.01 µM	0.1 to 1 µM	COc1cccc(-c2nc(Nc3ccc(N4CCOCC4)cc3)c3[nH]ncc3n2)c1 [Example #61, 5-(3-methoxyphenyl)-N-(4-morpholinophenyl)-1H-pyrazolo[4,3-d]pyrimidin-7-amine]
< 0.01 µM	0.1 to 1 µM	COc1cccc(-c2nc(Nc3ccc(N(C)C)cc3)c3[nH]ncc3n2)c1 [Example #63, N1-(5-(3-methoxyphenyl)-1H-pyrazolo[4,3-d]pyrimidin-7-yl)-N4,N4-dimethylbenzene-1,4-diamine]
< 0.01 µM	0.01 to 0.1 µM	c1ccc(-c2nc(Nc3ccc4c(c3)NCCO4)c3[nH]ncc3n2)cc1 [Example #64, N-(5-phenyl-1H-pyrazolo[4,3-d]pyrimidin-7-yl)-3,4-dihydro-2H-benzo[b][1,4]oxazin-6-amine]
< 0.01 µM	0.1 to 1 µM	COc1ccc(-c2nc(Nc3ccc(N4CCN(C)CC4)cc3)c3[nH]ncc3n2)cc1 [Example #66, 5-(4-methoxyphenyl)-N-(4-(4-methylpiperazin-1-yl)phenyl)-1H-pyrazolo[4,3-d]pyrimidin-7-amine]
< 0.01 µM	0.1 to 1 µM	COc1cccc(-c2nc(Nc3ccc4cn[nH]c4c3)c3[nH]ncc3n2)c1 [Example #67, N-(1H-indazol-6-yl)-5-(3-methoxyphenyl)-1H-pyrazolo[4,3-d]pyrimidin-7-amine]
< 0.01 µM	0.01 to 0.1 µM	c1csc(-c2nc(Nc3ccc(N4CCOCC4)cc3)c3[nH]ncc3n2)c1 [Example #69, N-(4-morpholinophenyl)-5-(thiophen-2-yl)-1H-pyrazolo[4,3-d]pyrimidin-7-amine]
< 0.01 µM	0.01 to 0.1 µM	CN(C)c1ccc(Nc2nc(-c3cccs3)nc3cn[nH]c23)cc1 [Example #71, N1,N1-dimethyl-N4-(5-(thiophen-2-yl)-1H-pyrazolo[4,3-d]pyrimidin-7-yl)benzene-1,4-diamine]
< 0.01 µM	0.01 to 0.1 µM	COc1ccc(Nc2nc(-c3ccsc3)nc3cn[nH]c23)cc1OC [Example #72, N-(3,4-dimethoxyphenyl)-5-(thiophen-3-yl)-1H-pyrazolo[4,3-d]pyrimidin-7-amine]
< 0.01 µM	0.01 to 0.1 µM	c1cc(-c2nc(Nc3ccc(N4CCOCC4)cc3)c3[nH]ncc3n2)cs1 [Example #73, N-(4-morpholinophenyl)-5-(thiophen-3-yl)-1H-pyrazolo[4,3-d]pyrimidin-7-amine]
< 0.01 µM	0.01 to 0.1 µM	CN(C)c1ccc(Nc2nc(-c3ccsc3)nc3cn[nH]c23)cc1 [Example #75, N1,N1-dimethyl-N4-(5-(thiophen-3-yl)-1H-pyrazolo[4,3-d]pyrimidin-7-yl)benzene-1,4-diamine]
